Consider four compounds from ChEMBL document CHEMBL1212804, “Comparative study of the mutant prevention concentrations of moxifloxacin, levofloxacin, and gemifloxacin against pneumococci” (2010).

Holding throughout (assay type): functional
Experiment [1] in a line: Ratio of AUC to MIC in Streptococcus pneumoniae ATCC 49619.
Experiment [2] concerns Streptococcus pneumoniae. The experiment is described as follows: Antibacterial activity against Streptococcus pneumoniae ATCC 49619.
Experiment [3] has as its system Streptococcus pneumoniae. The experiment is described as follows: Antibacterial activity against Streptococcus pneumoniae ATCC 49619 assessed as 50% mutant prevention concentration.
Experiment [4] relates to Streptococcus pneumoniae. The experiment is described as follows: Antibacterial activity against Streptococcus pneumoniae ATCC 49619 assessed as 90% mutant prevention concentration.
Experiment [5] relates to Streptococcus pneumoniae. The experiment is described as follows: Ratio of 50% mutant prevention concentration to MIC50 in Streptococcus pneumoniae ATCC 49619.
Experiment [6] deals with Streptococcus pneumoniae. Put plainly: Ratio of 90% mutant prevention concentration to MIC90 in Streptococcus pneumoniae ATCC 49619.
Experiment [7] relates to Streptococcus pneumoniae. The experiment is described as follows: Antibacterial activity against Streptococcus pneumoniae 1072 by standard agar dilution method. Background: Agar dilution tests growth on a series of plates holding different concentrations.
The subject of experiment [8] is Streptococcus pneumoniae. The experiment is described as follows: Antibacterial activity against Streptococcus pneumoniae 1149 by standard agar dilution method.
In experiment [9] the test system is Streptococcus pneumoniae. Put plainly: Antibacterial activity against Streptococcus pneumoniae 1151 by standard agar dilution method.
The subject of experiment [10] is Streptococcus pneumoniae. Put plainly: Antibacterial activity against Streptococcus pneumoniae 3321 by standard agar dilution method.
Experiment [11] concerns Streptococcus pneumoniae. Put plainly: Antibacterial activity against Streptococcus pneumoniae 1058 by standard agar dilution method.
Experiment [12] has as its system Streptococcus pneumoniae. The experiment is described as follows: Antibacterial activity against Streptococcus pneumoniae 1065 by standard agar dilution method.
Experiment [13] has as its system Streptococcus pneumoniae. The experiment is described as follows: Antibacterial activity against Streptococcus pneumoniae 1135 by standard agar dilution method.
For experiment [14], the system named is Streptococcus pneumoniae. The experiment is described as follows: Antibacterial activity against Streptococcus pneumoniae 1072 assessed as mutant prevention concentration by standard agar dilution method.
Experiment [15] deals with Streptococcus pneumoniae. The experiment is described as follows: Antibacterial activity against Streptococcus pneumoniae 1149 assessed as mutant prevention concentration by standard agar dilution method.
In experiment [16] the test system is Streptococcus pneumoniae. Put plainly: Antibacterial activity against Streptococcus pneumoniae 1151 assessed as mutant prevention concentration by standard agar dilution method.
The subject of experiment [17] is Streptococcus pneumoniae. Put plainly: Antibacterial activity against Streptococcus pneumoniae 3321 assessed as mutant prevention concentration by standard agar dilution method.
In experiment [18] the test system is Streptococcus pneumoniae. The experiment is described as follows: Antibacterial activity against Streptococcus pneumoniae 1058 assessed as mutant prevention concentration by standard agar dilution method.
The test system of experiment [19] is Streptococcus pneumoniae. Put plainly: Antibacterial activity against Streptococcus pneumoniae 1065 assessed as mutant prevention concentration by standard agar dilution method.
In experiment [20] the test system is Streptococcus pneumoniae. Put plainly: Antibacterial activity against Streptococcus pneumoniae 1135 assessed as mutant prevention concentration by standard agar dilution method.

Structures are written as SMILES. ≈ marks a conversion by molar mass, not a printed value.

Turning to `O=C(O)c1cn(C2CC2)c2cc(N3CCNCC3)c(F)cc2c1=O`, the RatioAUC/MIC in experiment [1] was determined as 30.
The MIC50 is the lowest concentration that inhibits either 50% of growth or 50% of the strains tested, depending on the study. Broadly, the MIC90 is the lowest concentration that inhibits either 90% of growth or 90% of the strains tested, depending on the study. Higher therefore signals weaker potency. The term MIC denotes the lowest concentration found to suppress growth. High values mean weaker potency, low ones greater potency. In turn, `CO/N=C1\CN(c2nc3c(cc2F)c(=O)c(C(=O)O)cn3C2CC2)CC1CN` (configuration not stated) [GEMIFLOXACIN] returned an MIC50 in experiment [2] of 0.125 µg/mL (≈ 0.321 µM). In addition, in experiment [2], the MIC90 is 1 µg/mL (≈ 2.57 µM). Moreover, the Activity is 0.5 µg/mL in [3]; 4 µg/mL in experiment [4]; 8 µg/mL in experiment [14]; more than 8 µg/mL in [15]; 8 µg/mL in [16]; 2 µg/mL in [17]. The Activity came out at 1 µg/mL in [18], 4 µg/mL in experiment [19] and 4 µg/mL in [20]. Further, the Ratio in experiment [5] and in [6] was 4 each time. The MIC in experiment [7] was 1 µg/mL (≈ 2.57 µM); in experiment [8] it was 0.5 µg/mL (≈ 1.28 µM); in [9], 1 µg/mL (≈ 2.57 µM); in experiment [10], 0.125 µg/mL (≈ 0.321 µM); in [11], 0.125 µg/mL (≈ 0.321 µM); in [12], 0.125 µg/mL (≈ 0.321 µM). Moreover, in experiment [13], the lowest concentration to inhibit growth (MIC) was 0.5 µg/mL (≈ 1.28 µM).
In experiment [2], `C[C@H]1COc2c(N3CCN(C)CC3)c(F)cc3c(=O)c(C(=O)O)cn1c23.C[C@H]1COc2c(N3CCN(C)CC3)c(F)cc3c(=O)c(C(=O)O)cn1c23.O` [LEVOFLOXACIN] displayed an MIC50 of 2 µg/mL. The same compound displayed an MIC90 in experiment [2] of 32 µg/mL. Besides, the Activity in [3] is 4 µg/mL; in [4], 64 µg/mL; in experiment [14] it was 256 µg/mL; in experiment [15] it was more than 64 µg/mL; in experiment [16], 32 µg/mL; in experiment [17] it was 32 µg/mL. Further, the Activity in experiment [18] was found to be 64 µg/mL; in [19], 32 µg/mL; in experiment [20] it was 128 µg/mL.
In turn, `COc1c(N2C[C@@H]3CCCN[C@@H]3C2)c(F)cc2c(=O)c(C(=O)O)cn(C3CC3)c12` [MOXIFLOXACIN] came in with an MIC50 in experiment [2] of 0.5 µg/mL (≈ 1.25 µM). Moreover, the MIC90 in experiment [2] was determined as 4 µg/mL (≈ 9.96 µM). The Activity was 1 µg/mL in experiment [3]; 16 µg/mL in experiment [4]; 64 µg/mL in [14]; more than 8 µg/mL in experiment [15]; more than 8 µg/mL in experiment [16]; more than 8 µg/mL in [17]. Further, the Activity in experiment [18] was more than 4 µg/mL; in experiment [19], more than 8 µg/mL; in experiment [20], 32 µg/mL. Moreover, the Ratio in experiment [5] turned out to be 2; in experiment [6], 4. Further, the MIC was 8 µg/mL (≈ 19.9 µM) in [7]; 0.5 µg/mL (≈ 1.25 µM) in experiment [8]; 1 µg/mL (≈ 2.49 µM) in experiment [9]; 0.5 µg/mL (≈ 1.25 µM) in experiment [10]; 0.5 µg/mL (≈ 1.25 µM) in experiment [11]; 0.5 µg/mL (≈ 1.25 µM) in experiment [12]. In experiment [13], the minimum inhibitory concentration (MIC) stood at 2 µg/mL (≈ 4.98 µM).
